Columns and labels:
[1] = system: kaolin-induced inflammation in the hind paw; experiment: Kaolin model of acute inflammatory pain, lameness score; type: in vivo, dog
Protocol: Kaolin-induced inflammation in the hind paw was performed based on the model described in “Paw inflammation model in dogs for preclinical pharmacokinetic/pharmacodynamic investigations of nonsteroidal anti-inflammatory drugs” (Jeunesse et al., 2011, J Pharmacol Exp Ther., 338 (2): 548-58). Briefly, the dogs were anaesthetized with an intravenous administration of propofol (Propovet, 6.5 mg/kg, Zoetis, France) and kaolin was injected subcutaneously on one paw. On D42, the injections were performed on the right hind paw of all dogs.
Lameness score was assessed on a typical course made by each dog using a numerical rating scale initially developed by Giraudel et al. (Giraudel J M et al., 2005, Br J Pharmacol 146:642-653; Giraudel J M et al., 2005, J Vet Pharmacol Ther 28:275-285) on cats and adapted by Jeunesse et al. (Jeunesse et al., 2011, J Pharmacol Exp Ther., 338 (2): 548-58). […] Lameness score was assessed on live and separately on videos by a different operator. […]

[2] = system: canine NGF protein; experiment: NGF total IgG ELISA in dog sera, ACLT+PMM chronic pain study (Example 8); type: in vivo; conditions: day 203 sera, group B, monthly s.c. administration
Protocol: NGF- and cNGF-CMV-Ntt830-E4 VLP total specific IgG antibodies in sera were measured by ELISA. ELISA plates were coated with recombinantly produced canine NGF protein (1.0 μg/mL) or cNGF-CMV-Ntt830-E4 VLP (2.0 μg/mL). Serum samples were pre-diluted 1:100, transferred to the ELISA plates and subjected to serial dilutions 3-fold serial dilution steps with a total of 11 dilutions being tested per serum sample. Following incubation, horse-radish peroxidase-(HRP-) labelled goat anti-dog IgG (Jackson ImmunoResearch, cat no 304-035-008, lot 156911) was added. After 2 hours incubation at room temperature, the plates were washed 4 times with 1×PBS/0.05% (v/v) Tween 20. […] Serum titers of samples at different time points were defined and depicted as the EC50 values of the curve fit. Titers below the detection limit of the assay were set to 100 for anti-CMV IgG respectively 50 for anti-NGF IgG, half of the lowest dilution factor (1:200 respectively 1:100) used in the assay. Bedinvetmab was used as a standard in the NGF IgG ELISA. Relative concentrations of anti-NGF IgG antibody in the serum (μg/mL) were calculated by multiplying the EC50 values of the serum with the EC50 values determine for the Bedinvetmab standard. Neutralization titers below the detection limit of the assay were set the equivalent monoclonal antibody concentration of the EC50 value of 50. […]

[3] = biological target: human beta-NGF (Homo sapiens, UniProt P01138); experiment: TF-1 cell based NGF neutralization bioassay, kaolin study
human beta-NGF, sequence (P01138 122-241): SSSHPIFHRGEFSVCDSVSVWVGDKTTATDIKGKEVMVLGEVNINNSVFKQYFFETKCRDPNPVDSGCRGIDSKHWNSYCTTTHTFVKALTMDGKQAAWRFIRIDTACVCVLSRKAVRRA
Protocol: (§1) The range of the actual doses of bedinvetmab administered was 0.52-0.97 mg/kg in line with the product information of the marketing authorization. • For the Vaccine group, the dogs received the inventive vaccine candidate, cNGF-CMV-Ntt830-E4 VLP, twice subcutaneously at the back of the neck on day 0 (DO) and day 21 (D21) at the dose of 250 μg VLP-NGF/dog.
Heat-inactivated (56° C. 30 min), serial-diluted sera or antibody standard (canonized monoclonal anti-canine NGF antibody bedinvetmab, Zoetis) were incubated with 5 ng/mL human beta-NGF for 1 hour at room temperature. The NGF-sera/antibody solution was then added to […] starved overnight of growth factors. Cell viability was quantified over the last 7 hour period of a total 72 hour incubation period using the CellTiter 96 AQueous One Solution Cell Proliferation Assay reagent (Promega). Absorbance was measured using a microplate reader (TecanSpark) at a wavelength of 490 nm and a reference wavelength of 700 nm. Titration curves were generated by plotting the difference in absorbance (490 nm-700 nm) versus the dilution factor of the serum sample. Using a 4-Parameter logistic regression curve fit model the IC50 values, the dilution factor corresponding to half maximum OD values, were determined. Serum titers of samples at different time points were defined and depicted as the IC50 values of the curve fit. […]

[4] = system: canine NGF protein; experiment: NGF total IgG ELISA in dog sera, kaolin study (Example 7); type: in vivo; conditions: study day 42; vaccine 250 μg s.c. D0 and D21; bedinvetmab s.c. once D35
Protocol: as §1
Blood samples for serology were collected at the following time points on DO, D21, D70, D84, D105 and D119 for the Vaccine and the Placebo groups only, on D35 for the Librela® group only, on D42 and on D56 for the three group. Blood samples were centrifuged and the serum decanted into three aliquots per sample.
NGF- and cNGF-CMV-Ntt830-E4 VLP total specific IgG antibodies in sera were measured by ELISA. ELISA plates were coated with recombinantly produced canine NGF protein (1.0 μg/mL) or cNGF-CMV-Ntt830-E4 VLP (2.0 μg/mL). Serum samples were pre-diluted 1:100, transferred to the ELISA plates and subjected to serial dilutions 3-fold serial dilution steps with a total of 11 dilutions being tested per serum sample. […] Relative concentrations of anti-NGF IgG antibody in the serum (μg/mL) were calculated by multiplying the EC50 values of the serum with the EC50 values determine for the Bedinvetmab standard. […]

[5] = biological target: T1, hNGF binding to TrkA (Homo sapiens, UniProt P01138); experiment: TrkA based NGF binding ELISA, ACLT+PMM study; type: biochemical; conditions: day 203, group B, 6 days after administration
T1 construct: 5 ng/ml human mature NGF (R&D, 256-GF-100/CF); purchased R&D (hNGF); SinoBio (TrkA) 256-GF; 11073-H08H
T1 sequence (P01138 122-241): as above
Protocol: ELISA plates were coated with 100 μL/well of 0.5 μg/mL TrkA (SinoBio 11073-H08H) in PBS over night at +4° C. After washing with PBST, plates were blocked using 200 μL/well SuperBlock (ThermoScientific 37518) for 1 hour at room temperature. Serum samples or positive control antibody (caninized monoclonal anti-canine NGF antibody bedinvetmab, Zoetis) were diluted in 2% BSA/PBST and incubated with 1.25 ng/ml hNGF (R&D 256-GF) for 1 hour. After washing the ELISA plates, serum/NGF solution was added to the plates. Plates were incubated for 1 hour at room temperature, washed and HRP-labelled rabbit anti-NGF antibody (SinoBio 11050-RP02-H) at a concentration of 1.5 μg/mL was added. After the plates were washed 4 times with 1×PBS/0.05% (v/v) Tween 20, TMB substrate (ThermoScientific 3401) as the HRP substrate and development reaction was stopped by addition of 2M H2SO4. OD values at 450 nm were measured using a microplate reader (TecanSpark). […] Using a 4-Parameter logistic regression curve fit model the IC50 values, the dilution factor corresponding to half maximum OD 450 nm values, were determined. […] Relative concentrations of neutralizing antibody in the serum (μg/mL) were calculated by multiplying the IC50 values of the serum with the IC50 values determine for the bedinvetmab standard (μg/mL). […]

[6] = in vivo; cited from earlier work
[7] = Ionic strength/salt stability of VLPs in NaCl, native agarose gel electrophoresis; type: physicochemical; conditions: NaCl concentrations up to 0.4 M, room temperature, 0.5 mg/ml, pH 7.5
Protocol: FIG. 12: Stability of CMV-Ntt830 VLPs and CMV-Ntt830-E4 VLPs in solution in the presence of different NaCl concentrations. Samples of CMV-Ntt830 VLPs and CMV-Ntt830-E4 VLPs at 0.5 mg/ml were incubated at room temperature in 5 mM Na phosphate, 2 mM EDTA, pH 7.5 with different concentrations of NaCl (the molar concentration of NaCl in each sample is indicated at the bottom of the gels) for up to 2 hours. Samples were analysed by native agarose gel electrophoresis and ethidium bromide staining. Panels A and B show NAGE analysis of CMV-Ntt830 VLP and CMV-Ntt830-E4 VLPsamples respectively. […] Black arrows indicate the position of loading wells within the gels and location of VLPs within the wells and gels. The presence of CMV-Ntt830 VLPs in the loading wells after electrophoresis (panel A) is due to the formation of VLP aggregates which are too large to enter the gel. Integral unaggreagted VLPs migrated into the gel.
The relative stabilities of CMV-Ntt830 VLPs and CMV-Ntt830-E4 VLPs to NaCl were tested by incubating purified VLPs (0.5 mg/ml in 5 mM Na phosphate, 2 mM EDTA, pH 7.5) at room temperature with various NaCl concentrations.

[8] = Processability of VLPs by anion exchange chromatography (aggregation by NAGE); type: physicochemical; conditions: DEAE resin, pH 9.0, NaCl elution
Protocol: To test the processability of prior art CMV-Ntt830 VLPs with anion exchange chromatography (AEX), sucrose gradient purified VLPs were prepared as described in Examples 2-4 of WO2016/062720A1. Five mls of CMV-Ntt830 VLPs (1 mg/ml) were buffer exchanged into 5 mM sodium borate pH 9 and loaded onto a 1.0 ml Macro-Prep DEAE Bio-Rad anion exchange cartridge equilibrated with the same buffer. After the loading step, the concentration of NaCl in the elution buffer was increased in step-wise manner (0.1, 0.2, 0.3, 0.4, 0.5, 0.8., 1.0 and 2.0 M). Fractions were collected and measured at 260 nm using Nanodrop spectrophotometer to measure protein and subjected to native agarose gel electrophoresis (NAGE).
In contrast, non-aggregated CMV-Ntt830-E4 VLPs could be readily purified from a crude lysate using AEX. Clarified lysate prepared from E. coli expressing CMV-Ntt830-E4 VLPs (as described in Example 1) in 50 mM citrate, 5 mM Borate buffer pH 9.0 was loaded onto 60 ml of Fracto-DEAE (Merck) in an XK 26/20 column equilibrated with the same buffer and eluted by applying a continuous NaCl gradient from 0 to 1.0 M in the same buffer. The eluate was monitored at A260 nm to measure protein and conductivity measured to monitor salt concentration. The clarified lysate, flow-through and fractions were collected and subjected to NAGE and SDS-PAGE.

[9] = Thermal shift assay with SYPRO Orange (thermal stability of VLPs); type: physicochemical; conditions: 0.5 mg/ml VLPs in 5 mM Na phosphate, 2 mM EDTA, pH 7.5, real-time PCR system
Protocol: A thermal shift assay involving temperature-induced denaturation and the fluorescent dye SYPRO® Orange (Sigma, Saint Louis, USA) was used for this purpose. The dye is a naturally quenched in solution but as the VLPs denature with increasing temperatures, SYPRO® Orange interacts with exposed hydrophobic amino acids and cores and emits a fluorescent signal, which is measured by fluorometry. From the resultant melting curve (fluorescent signal vs temperature), the melt peak curves and melting temperature were determined. Solutions containing 0.5 mg/ml of sucrose density gradient purified (as described in Example 1 above) CMV-Ntt830 VLPs or CMV-Ntt830-E4 VLPs in 5 mM Na phosphate, 2 mM EDTA, pH 7.5 were assayed with a real-time PCR system MJ Mini (Bio-Rad, Hercules, USA) using a DNA melting point determination program. Data were analysed using Opticon Monitor Software and melting curves processed at a smooth setting of four.

[10] = system: PC12 cells; experiment: Neurite outgrowth bioassay for authenticity of recombinant NGF; type: cell-based; conditions: 5 days, 6.25-100 ng/ml NGF
Protocol: FIG. 15B: PC12 cells were grown for 5 days with recombinant human mature NGF produced in mouse myeloma cells (R&D systems) (black squares) or with canine mature NGF produced in E. coli as described herein (grey circles). Cells were grown in the presence of 100, 50, 25, 12.5 and 6.25 ng/ml of recombinant NGF and the percentage of cells with defined neurite outgrowth determined.

Cc1cnc(NC(=O)C2=C(O)c3ccccc3S(=O)(=O)N2C)s1 [Inflacam®, meloxicam]
mean lameness score as compared to the Placebo group ([1]; one day after kaolin-induced inflammation, 0.2 mg meloxicam/kg s.c. D43): reduced

bedinvetmab
NGF-specific IgG GMT [2]: 10.9 µg/mL
peak NGF neutralizing titers ([3]; study day 42, study group 1): 3.93 µg/mL
dogs with levels below the detection limit of the TF-1-based NGF neutralization assay ([3]; study day 56, 21 days after administration): 6 of 7
NGF-specific IgG GMT (standard equivalent concentration), peak [4]: 3.68 µg/mL
NGF neutralizing antibody titers [5]: 7.85 µg/mL
mean titers (dashed line FIG. 24B) [6]: 1 µg/mL
peak antibody titer in serum after administration of bedinvetmab [6]: 6.1 µg/mL
mean AUC for lameness scores ([1]; 14 days post kaolin challenge, 7 dogs/group): 15.36

CMV-Ntt830-E4 VLPs: modified CMV VLP of chimeric CMV polypeptide SEQ ID NO:10, four glutamic acid residues (E4) inserted into CMV-Ntt830
aggregate formation in presence of NaCl [7]: no evidence of aggregate formation
aggregated VLPs after anion exchange chromatography (NAGE loading wells) [8]: no evidence of aggregated VLPs
melting temperature (melting point) [9]: ~57 °C

B1: canine mature NGF: recombinant canine mature NGF (SEQ ID NO:30) produced in E. coli, with C-terminal GCG motif (SEQ ID NO:31) or His-tag (SEQ ID NO:33) (protein)
chain: SSSHPVFHRGEFSVCDSVSVWVGDKTTATDIKGKEVMVLGEVNINNSVFKQYFFETKCRDPTPVDSGCRGIDSKHWNSYCTTTHTFVKALTMDGKQAAWRFIRIDTACVCVLSRKAGRRAG
modifications: C-terminal GCG motif or His-tag
activity at inducing neurite outgrowth compared with commercial mature NGF (R&D systems) [10]: similarly active

— US20250281584A1, “ACTIVE VACCINATION FOR THE TREATMENT OF NGF-RELATED DISORDERS” (priority 2024, published 2025)
